The target in one data set is T1, H1299 cell pAXL (Homo sapiens, UniProt P30530).
T1 construct: endogenous in cells; host or cells: H1299
T1 sequence (P30530 26-894): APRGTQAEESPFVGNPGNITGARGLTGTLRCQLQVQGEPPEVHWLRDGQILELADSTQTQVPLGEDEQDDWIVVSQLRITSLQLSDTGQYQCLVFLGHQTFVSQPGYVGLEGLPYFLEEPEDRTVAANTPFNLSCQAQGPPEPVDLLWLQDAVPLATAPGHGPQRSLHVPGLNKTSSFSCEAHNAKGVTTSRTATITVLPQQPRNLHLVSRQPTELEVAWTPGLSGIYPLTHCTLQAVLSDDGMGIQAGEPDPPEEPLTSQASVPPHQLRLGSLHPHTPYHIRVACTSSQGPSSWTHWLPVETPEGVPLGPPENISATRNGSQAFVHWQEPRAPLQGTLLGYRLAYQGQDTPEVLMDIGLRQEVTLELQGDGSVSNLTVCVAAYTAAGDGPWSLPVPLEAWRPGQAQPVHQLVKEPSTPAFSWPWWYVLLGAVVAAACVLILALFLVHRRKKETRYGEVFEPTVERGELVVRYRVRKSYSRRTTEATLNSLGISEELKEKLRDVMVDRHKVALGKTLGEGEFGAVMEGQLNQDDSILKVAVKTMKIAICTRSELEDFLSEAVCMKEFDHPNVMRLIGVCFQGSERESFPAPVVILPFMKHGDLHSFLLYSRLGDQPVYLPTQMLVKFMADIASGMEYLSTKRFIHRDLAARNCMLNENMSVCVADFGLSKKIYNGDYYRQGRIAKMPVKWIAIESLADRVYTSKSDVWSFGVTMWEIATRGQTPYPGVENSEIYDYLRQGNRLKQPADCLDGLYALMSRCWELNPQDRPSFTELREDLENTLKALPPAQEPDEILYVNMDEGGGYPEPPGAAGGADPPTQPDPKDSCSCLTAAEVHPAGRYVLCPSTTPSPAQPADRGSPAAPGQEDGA
Put plainly: Inhibitory activity on cell pAXL (Western Blot, hGAS6 stimulation). The class given is cell-based. The following applies: H1299 cells, 60 min compound then hGAS6 200 ng/mL 60 min. As for the experimental part:
H1299 is a non-small cell lung cancer cell line.
Test substance: the crystal form of the methanesulfonate of the compound of formula (I) of the present disclosure, having the structure shown above.
Test instruments: protein electrophoresis apparatus (Bio Rad), membrane transfer apparatus (Bio Rad), exposure apparatus (Tanon), CO2 cell incubator (Thermo), and the like.
H1299 cells were inoculated into a 6-well plate (containing 10% FBS 1640 medium, 5 × 10^5 cells/well) and adherently cultivated at 37 °C with 5% CO2 for 18 h. The cells were starved overnight, and different concentrations of the compound were added. The final compound concentrations were 0.37 nM, 1.1 nM, 3.3 nM, 10 nM, and 30 nM, with the final DMSO content in each compound well being 1 ‰. The negative control well contained medium with 1‰ DMSO. The cells were incubated at 37 °C with 5% CO2 for 60 min, and then hGAS6 (R&D, final concentration: 200 ng/mL) was added to each well. The cells were incubated for another 60 min, and then the total protein of the cells was extracted for a Western Blot experiment to assay the inhibitory activity of the compound on cell pAXL.

A short description of data set [1]: PK evaluation of crystal forms in rats. The class given is in vivo. Here is the method:
The experimental crystal forms I and II of the methanesulfonate of the compound of formula (I) were each prepared into a suspension solution with 0.5% HPMC. The compound solutions were intragastrically administered to SD rats at a dose of 60 mg/kg. Blood samples were collected at time points of 15 min, 30 min, 1 h, 2 h, 4 h, 6 h, 8 h, 24 h, 48 h, 72 h, and 96 h after administration.
The animals were fixed, with tails warmed in a water bath 10 min before each sampling time point. About 100 µL of blood was collected via the tail vein, and the blood samples were collected in anticoagulation tubes containing EDTA-K2. The blood samples were then centrifuged at 8,000 rpm for 6 min at 4 °C to give plasma samples. The plasma samples were prepared within 30 min after blood collection. The plasma samples were stored in a refrigerator at -80 °C before the test.
The sample to be tested was taken out from the -80 °C refrigerator, naturally thawed at room temperature, and vortexed for 5 min. 20 µL of plasma sample was precisely pipetted to a 1.5 mL centrifuge tube, and 200 µL of internal standard working solution (a solution of tolbutamide in methanol, 100 ng/mL) was added. The resulting mixture was thoroughly mixed, vortexed for 5 min, and centrifuged at 12,000 rpm for 5 min. 50 µL of supernatant was precisely pipetted to a 96-well plate pre-loaded with 150 µL of water per well, and the resulting mixture was vortexed for 5 min and then used for LC-MS/MS analysis.
The concentrations of the test samples were calculated by Analyst 1.6.3 from AB Sciex. Parameters such as mean, standard deviation, and coefficient of variation (excluding those output directly by Analyst 1.6.3) were calculated by Microsoft Excel. PK parameters were calculated by Pharsight Phoenix 6.1 software NCA (Tmax was in median).

Data set [2] is described as follows: Solubility in FaSSIF (pH 6.5) and FeSSIF (pH 5.0) buffer solutions. The format is physicochemical. Here is the method:
Test substances: the crystal forms I, II, III, and IV of the methanesulfonate of the compound of formula (I).
• 1) 0.42 g of NaOH, 3.44 g of anhydrous NaH2PO4, and 6.19 g of NaCl were dissolved in about 0.9 L of pure water; • 2) the pH was adjusted to 6.5 using 1 N NaOH or 1 N HCl, and the buffer solution was supplemented to the volume of 1 L with pure water at room temperature; • 3) 2.24 g of FaSSIF powder was added to about 0.5 L of the buffer solution, and the mixture was stirred until the powder was completely dissolved; the resulting solution was supplemented to the volume of 1 L with the buffer solution at room temperature, and after being left to stand for 2 h, it was ready for use.
• 1) 4.04 g of NaOH, 8.65 g of glacial acetic acid, and 11.87 g of NaCl were dissolved in about 0.9 L of pure water; • 2) the pH was adjusted to 5.0 using 1 N NaOH or 1 N HCl, and the buffer solution was supplemented to the volume of 1 L with pure water at room temperature; • 3) 11.2 g of FeSSIF powder was added to about 0.5 L of the buffer solution, and the mixture was stirred until the powder was completely dissolved; the resulting solution was supplemented to the volume of 1 L with the buffer solution at room temperature, and after being left to stand for 2 h, it was ready for use.
An appropriate amount of each test substance was placed into separate 10 mL PE tubes, and FaSSIF (pH 6.5) buffer solution and FeSSIF (pH 5.0) buffer solution, each 10 mL, were added into the tubes, respectively. The tubes were then placed in a constant temperature water bath shaker and shaken at 37 °C for 24 h. After 24 h, samples were collected and centrifuged. The supernatants were diluted, and the solubility of the supernatants was measured.

A value given as a limit tells only on which side of the number the result lay.

As to `COc1cc2nccc(Oc3ccc(NC(=O)c4nn(C(C)C)cc(-c5ccc(F)cc5)c4=O)nc3)c2cc1OC` [Crystal form I, N-(5-((6,7-dimethoxyquinolin-4-yl)oxy)pyridin-2-yl)-5-(4-fluorophenyl)-1-isopropyl-4-oxo-1,4-dihydropyridazine-3-carboxamide], on H1299 cell pAXL, the 50% inhibitory concentration (IC50) is under 0.37 nM. In data set [1] (SD rats, PO 60 mg/kg, n = 3, suspension in 0.5% HPMC), this compound gave a λ_z of 0.018 h⁻¹. Besides, in data set [1] (SD, rat, plasma, po, 60 mg/kg, 0-96 h, n = 3), the AUC(0-t) worked out at 4020 µg·h/mL. Moreover, the Tmax in data set [1] (SD, rat, plasma, po, 60 mg/kg, median, n = 3, read-out: Tmax) stood at 8 h. Moreover, the Cmax in data set [1] (SD, rat, plasma, po, 60 mg/kg, n = 3, read-out: Cmax) came out at 69 µg/mL. The compound also yielded a tz1/2 in data set [1] (terminal half-life, SD rats, PO 60 mg/kg, n = 3) of 38.6 h. Also, the “24-hour solubility in buffer solutions with different pH values pH6.5” value in data set [2] (FaSSIF (pH 6.5), 37 °C, shaken 24 h) is on record as 0.052 mg/mL. Further, in data set [2] (FeSSIF (pH 5.0), 37 °C, shaken 24 h), the “24-hour solubility in buffer solutions with different pH values pH5.0” value came to 0.29 mg/mL. Moreover, the “solubility compared with the compound of formula (I)” value in data set [2] (test solutions at pH 5.0 and pH 6.5) is “significantly improved”.

The record behind these values is patent EP4582418A1, “CRYSTALLINE FORM OF QUINOLINE DERIVATIVE INHIBITOR, PREPARATION METHOD THEREFOR AND USE THEREOF” (TransThera Sciences (Nanjing), Inc., priority 2022, dated 2024).
